Results on 14 compounds are retold here after patent US20110046101A1, “BATE-LACTAMASE INHIBITORS” (priority 2008, published 2011).

In one assay the target is OXA-45 (Pseudomonas aeruginosa, UniProt Q7WZC7). In words: β-lactamase inhibition assay with nitrocefin substrate, OXA-45. It is filed as biochemical. The method, then: (§1) Compounds of the present application were evaluated as inhibitors of two Class B β-lactamases (IMP-1 and VIM-2) and two Class D β-lactamases OXA-10 and OXA-45).
OXA-45 was a gift from Dr. J. Spencer, University of Bristol, and had been prepared and purified as described by Toleman, M. A. et al., Antimicrob. Agents Chemother. 2003, 47, 2859-2863.
(§2) Two methods were used for measurement of β-lactamase activity, based on the use of the substrate nitrocefin. The first was carried out in a cuvette (final volume 1 ml, 25° C.) with the aid of a Cary 5 spectrophotometer, and second was with the use of a Molecular Devices Spectramax 190 96 well plate reader (final volume 100 μl, 30° C.).
(§3) All assays were performed in the appropriate buffer for the enzyme: (i) IMP-1, VIM-2: 50 mM Hepes pH 7.3, 1 μg/ml BSA, 1 μM ZnSO4; (ii) OXA-45: 100 mM Na Phosphate/25 mM NaCO3 pH 7.0, 1 μg/ml BSA; and (iii) OXA-10: 100 mM Na Phosphate/25 mM NaCO3 pH 7.0. Enzyme concentrations were chosen so that a reasonable rate of reaction was observed. Inhibitors were dissolved in DMSO, with the final concentration of DMSO in the assay being 1%. Nitrocefin was dissolved in DMSO and diluted in 50 mM Hepes pH 7.3 with the final concentration in the assay being 100 μM. The enzyme was allowed to react with the inhibitor for a predetermined time followed by addition of substrate to initiate the reaction, which was monitored for an increase in absorbance at 482 nm. IC50 values were determined by plotting percent loss of initial activity vs log inhibitor concentration. Controls were run to ensure that there was minimal loss of activity with DMSO (<10%). When inhibition by DMSO was noted, 0.5 M NaCl was added to stabilize the enzyme.

In a further assay the target is T1, IMP-1 (Serratia marcescens, UniProt P52699).
T1 construct: made in house; host or cells: E. coli (pCIP4 plasmid from Dr. M. Galleni)
T1 sequence (P52699 19-246 limits assumed): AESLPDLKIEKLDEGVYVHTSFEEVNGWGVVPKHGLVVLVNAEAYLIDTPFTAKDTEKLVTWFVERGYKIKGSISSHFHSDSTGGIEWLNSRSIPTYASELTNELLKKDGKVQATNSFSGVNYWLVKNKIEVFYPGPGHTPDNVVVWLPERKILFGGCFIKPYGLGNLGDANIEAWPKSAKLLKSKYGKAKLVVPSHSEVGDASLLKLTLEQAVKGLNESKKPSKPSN
In words: biochemical. Particulars: for IC50: IC50 (μM) class B IMP-1, nitrocefin 100 μM, 50 mM Hepes pH 7.3. Here is the method:
as §1
IMP-1 was overexpressed in E. coli using the pCIP4 plasmid encoding IMP-1 which was obtained from Dr. M. Galleni, Université de Liège, B-4000 Liege, Belgium, and was purified as described by Laraki, N. et al., Antimicrob. Agents Chemother. 1999 43, 902-906.
as §2, §3

The target in the next assay is T2, OXA-10 (Pseudomonas aeruginosa, UniProt P14489).
T2 construct: made in house; host or cells: E. coli (pEt24a(+) plasmid from Dr. S. Mobashery)
T2 sequence (P14489 20-266): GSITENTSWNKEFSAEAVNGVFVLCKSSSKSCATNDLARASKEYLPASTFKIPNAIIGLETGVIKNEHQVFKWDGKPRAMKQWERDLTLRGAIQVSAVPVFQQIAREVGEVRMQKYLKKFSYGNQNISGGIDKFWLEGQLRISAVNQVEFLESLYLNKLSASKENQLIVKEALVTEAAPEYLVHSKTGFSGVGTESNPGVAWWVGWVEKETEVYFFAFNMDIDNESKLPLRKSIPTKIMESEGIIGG
In words: biochemical. It is filed as biochemical. The method, then: as §1
OXA-10 was overexpressed in E. coli using the pEt24a(+) plasmid, encoding OXA-10, which was provided by Dr. S. Mobashery, University of Notre Dame, and was purified as described by Golemi et al., J. Am. Chem. Soc. 2000, 122, 6132-6133.
as §2, §3

A further assay deals with T3, VIM-2 (Escherichia coli, UniProt Q5U7L7).
T3 construct: made in house; host or cells: E. coli DH10B (pNOR,2001 plasmid from Dr. P. Nordmann)
In words: biochemical. The class given is biochemical. The method, then: as §1
VIM-2 was overexpressed in E. coli (DH10B) containing the pNOR,2001 plasmid, encoding VIM-2, which was provided by Dr. P. Nordmann, Universite de Paris, and was purified as described by Poirel et al., Antimicrob. Agents Chemother. 2000, 44, 891-897.
as §2, §3

Assay [1] has as its system Stenotrophomonas maltophilia strain 92-00626 (produces metallo β-lactamase L1). In words: Agar dilution MIC, synergy with pipericillin, S. maltophilia. The class given is cell-based. Particulars: S. maltophilia strain 92-00626 (L1), compound at ¼ the concentration of the antibiotic, 18 h. Here is the method:
(§4) Such compounds were expected to enhance the potency of a clinically useful β-lactam antibiotic against clinical isolates of human pathogenic bacteria which are highly resistant to β-lactam antibiotics. Certain β-lactamase inhibitors were tested to determine whether or not they would have a synergistic effect on the antibacterial activity of pipericillin against β-lactam antibiotic resistant bacterial clinical isolates using the Agar Dilution Method.
(§5) Bacterial colonies were taken from overnight blood agar plates, and sterile saline was inoculated to make a 0.5 McFarland suspension inoculum and further diluted such that the 10^4 CFU spots were delivered to the MHA (Oxoid) surface. Inhibitor samples were dissolved in DMSO and administered at a pipericillin:compound ratio of 4:1 (wt/wt). The plates were incubated at 35° C. and read after 18 h of incubation. MICs were measured by agar dilution on Mueller-Hinton II agar (BD Microbiology Systems, Cockeysville, Md., USA), as recommended by the NCCLS (National Committee for Clinical Laboratory Standards. (2003).Performance Standards for Antimicrobial Susceptibility Testing.)
Background: In agar dilution the substance is mixed into plates at graded concentrations.

Assay [2] deals with Pseudomonas aeruginosa strain 81-11963 (produces metallo β-lactamase VIM-2). In words: Agar dilution MIC, synergy with pipericillin, P. aeruginosa. To be noted: P. aeruginosa strain 81-11963 (VIM-2), compound at ¼ the concentration of the antibiotic, 18 h. It is filed as cell-based. Here is the method: as §4, §5
Where [3] appears, read: nitrocefin 100 μM, 100 mM Na Phosphate/25 mM NaCO3 pH 7.0, read-out: IC50 (μM) class D OXA-45.

Where “and” joins values, the source holds several entries; their conditions need not be identical. Equal entries are not always repeated. Where two headings read alike, the source gives them in different places.

OXA-45, sequence (Q7WZC7 entry or part of it): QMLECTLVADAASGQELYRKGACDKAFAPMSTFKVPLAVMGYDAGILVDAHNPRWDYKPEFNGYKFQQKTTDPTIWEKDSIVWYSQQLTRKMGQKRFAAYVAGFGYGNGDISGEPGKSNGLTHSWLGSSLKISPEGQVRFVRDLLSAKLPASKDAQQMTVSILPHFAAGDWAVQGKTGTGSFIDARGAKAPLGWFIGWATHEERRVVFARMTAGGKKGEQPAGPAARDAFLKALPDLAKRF

`CC(C)(C)c1ccc(C(=O)N/N=C/c2ccc3c(c2)OCO3)cc1` [Compound 11, N′-(Benzo[d][1,3]dioxol-5-ylmethylene)-4-t-butylbenzohydrazide]: the IC50 on OXA-45, at IMP-1, at OXA-10 and against VIM-2 was over 10 µM each time.

As for `CC(C)(C)c1ccc(C(=O)N/N=C/c2ccccc2OCc2ccccc2)cc1` [Compound 10, N′-(2-(Benzyloxy)benzylidene)-4-t-butylbenzohydrazide], the IC50 (usually the concentration needed to halve the response being measured) was over 10 µM on OXA-45 (setting [3]), 4.7 µM against IMP-1, over 10 µM against OXA-10 and over 10 µM against VIM-2.

For `CC(C)(C)c1ccc(C(=O)N/N=C/c2c(O)ccc3ccccc23)cc1` [Compound 4, 4-t-Butyl-N′-((2-hydroxynaphthalen-1-yl)methylene)benzohydrazide], the “inhibition of OXA-45 (in words)” value against OXA-45 was “inhibited”. Moreover, at OXA-45 (setting [3]), the IC50 was found to be 1.7 µM. In addition, at IMP-1, the “inhibition of IMP-1 (in words)” value is recorded as “inhibited” and the IC50 came out at 3 µM. Besides, at OXA-10, the IC50 stood at 1.7 µM and the “inhibition of OXA-10 (in words)” value is reported as “inhibited”. Besides, on VIM-2, the IC50 was found to be 9 µM and the “inhibition of VIM-2 (in words)” value is “inhibited”.

Take `O=C(N/N=C/c1cccc(Oc2ccccc2)c1)c1cc2ccccc2cc1O` [Compound 7, 3-Hydroxy-N-(3-phenoxybenzylidene)-2-naphthohydrazide]: the IC50 on OXA-45 worked out at 0.56 µM; against IMP-1, 7 µM; against OXA-10, 1.8 µM; at VIM-2, 8.5 µM.

As to `O=C(N/N=C/c1ccccc1O)c1cccnc1` [Compound 13, N′-(2-Hydroxybenzylidene)nicotinohydrazide], the IC50 at OXA-45, against IMP-1, at OXA-10 and at VIM-2 was over 100 µM throughout.

On to `CC(C)(C)c1ccc(C(=O)N/N=C/c2ccccc2[N+](=O)[O-])cc1` [Compound 12, 4-t-Butyl-N′-(2-nitrobenzylidene)benzohydrazide], for which the IC50 on OXA-45 (setting [3]), on IMP-1, at OXA-10 and at VIM-2 was over 10 µM throughout.

For the compound `O=C(N/N=C/c1c2ccccc2cc2ccccc12)c1cc2ccccc2cc1O` [Compound 6, N′-(Anthracen-9-ylmethylene)-3-hydroxy-2-naphthohydrazide], the IC50 turned out to be 0.57 µM on OXA-45 (setting [3]), 1.02 µM against IMP-1, 2.8 µM against OXA-10 and 12.3 µM at VIM-2.

As to `O=C(N/N=C/c1ccccc1O)c1ccncc1` [Compound 14, N′-(2-Hydroxybenzylidene)isonicotinohydrazide], the IC50 at OXA-45 (setting [3]), at IMP-1, at OXA-10 and at VIM-2 was over 100 µM each time.

For `O=C(N/N=C/c1ccccc1O)c1ccccc1O` [Compound 15, 2-Hydroxy-N′-(2-hydroxybenzylidene)benzohydrazide], the IC50 at OXA-45 (setting [3]), at IMP-1, against OXA-10 and against VIM-2 was over 40 µM each time.

Regarding `CC(C)(C)c1ccc(C(=O)N/N=C/c2c3ccccc3cc3ccccc23)cc1` [Compound 1, N′-(Anthracen-9-ylmethylene)-4-t-butylbenzohydrazide], the IC50 against IMP-1 was 0.9 µM and 0.91 µM.

Turning to `CC(C)(C)c1ccc(C(=O)N/N=C/c2ccccc2O)cc1` [Compound 5, 4-t-Butyl-N′-(2-hydroxybenzylidene)benzohydrazide], the “inhibition of OXA-45 (in words)” value on OXA-45 is listed as “inhibited”. In addition, the IC50 at OXA-45 (setting [3]) worked out at 28 µM; on IMP-1, 9 µM; against OXA-10, 12.8 µM; on VIM-2 it was 18 µM. Moreover, the “diminution in the MIC value found for pipericillin” value in assay [1] is given as “greater than 4 fold”. Moreover, the “inhibition of IMP-1 (in words)” value against IMP-1 was “inhibited”. Moreover, the “inhibition of OXA-10 (in words)” value against OXA-10 is given as “inhibited”. At VIM-2, the “inhibition of VIM-2 (in words)” value is “inhibited”.

Consider `O=C(N/N=C/c1ccccc1O)c1cc2ccccc2cc1O` [Compound 3, 3-Hydroxy-N′-(2-hydroxybenzylidene)-2-naphthohydrazide], for which, on OXA-45, the “inhibition of OXA-45 (in words)” value is “inhibited”. In addition, the IC50 on OXA-45 (setting [3]) worked out at 0.25 µM; at IMP-1 it was 8.3 µM; against OXA-10, 3.9 µM; on VIM-2 it was 18.2 µM. For the same compound, the “diminution in the MIC value found for pipericillin” value in assay [2] is “greater than 4 fold”. Besides, at IMP-1, the “inhibition of IMP-1 (in words)” value was “inhibited”. At OXA-10, the “inhibition of OXA-10 (in words)” value was “inhibited”. In addition, the “inhibition of VIM-2 (in words)” value at VIM-2 is “inhibited”.

Take `CC(C)(C)c1ccc(C(=O)N/N=C/c2cccc(Oc3ccccc3)c2)cc1` [Compound 8, 4-t-Butyl-N′-(3-phenoxybenzylidene)benzohydrazide]: the IC50 against OXA-45 came out at 4.3 µM; at IMP-1, 6.7 µM; on OXA-10, 10.3 µM; on VIM-2 it was 23.9 µM.

As for `O=C(N/N=C/c1ccccc1O)c1ccc2ccccc2c1` [Compound 2, N′-(2-Hydroxybenzylidene)-2-naphthohydrazide], at OXA-45, the IC50 was 1.8 µM and the “inhibition of OXA-45 (in words)” value is reported as “inhibited”. In addition, on IMP-1, the “inhibition of IMP-1 (in words)” value is recorded as “inhibited” and 38.3 µM corresponded to half-maximal inhibition (IC50). Besides, on OXA-10, the IC50 came to 15.2 µM and the “inhibition of OXA-10 (in words)” value is “inhibited”. Further, at VIM-2, inhibition was half-maximal at 35.1 µM (IC50) and the “inhibition of VIM-2 (in words)” value is “inhibited”.
